Here are results for two compounds from patent US11235011B2, “Use of alphavirus in preparation of antitumor drugs” (GUANGZHOU VIROTECH PHARMACEUTICAL CO., LTD, priority 2014, dated 2022).

Data set [1] relates to human ex vivo living colorectal cancer tissue. Description: Human ex vivo living tumor tissue culture, TECIA/MTT inhibition rate. Type of data set: cell-based. As to conditions: M1 virus 10^7 PFU, 5-Fu 10 mg/L, 96 hours. On the procedure: (§1) The ex vivo living tissue was obtained by surgical excision in Tumor Prevention Center of Sun Yat-sen University, stored at 4 □, and then sent to the laboratory within four hours for drug sensitivity test. All the cases were confirmed by a histopathology examination. Under sterile condition, the tumor tissue was taken out, and cut into tissue pieces with a diameter of 0.5-1 mm, placed onto a 24-well culture plate (4-6 pieces per well), and 1 ml DMEM medium was added into each well. After one hour of culture, a projection illuminated image of the tumor tissue piece was taken by an image analyzer specialized for drug sensitivity test.
(§2) The tumor tissue was cultured in a CO2 cell incubator for 12 hours. […] After 96 hours of the infection treatment, MTT (5 mg/ml) was added at 50 μl/well, and cultured for 3 hours. A diffusion light illuminated image of the tumor tissue piece was then taken by an image analyzer specialized for drug sensitivity test, to determine the blue dyed area by formazan in the tumor piece in each well and the coloring degree (blue area, BA). Then the tissue survival rate (survival fraction, SF) was calculated according the following formula: […]

For data set [2], the system named is human ex vivo living liver cancer tissues. The description is as above. Type of data set: cell-based. As to conditions: M1 virus 10^7 PFU, 5-Fu 10 mg/L, 96 hours. On the procedure:
as §1, §2

The subject of the next data set is ZAP. Description: ZAP protein expression after ZAP RNA interference fragment (Western blot). In kind it is cell-based, human. Background: A western blot detects proteins with antibodies after separation by electrophoresis.

d = 2'-deoxy (DNA); r = 2'-OH (RNA)

Procedure for ZAP: The cells in the exponential growth phase were selected, and added into a DMEM complete medium (10% fetal bovine serum, 1% double antibody) to prepare a cell suspension, and the cells were inoculated into a 6-well plate at a density of 1×10^5/well. After 24 hours, Si RNA fragment wrapped with RNAiMAX was added. […] After 48 hours of the infection, the specimens were treated.

For `O=c1[nH]cc(F)c(=O)[nH]1` [5-Fu, 5-fluorouracil], in data set [1], the “number of cases with inhibition rate (% control) >10%” value is recorded as 8, the “number of cases with inhibition rate (% control) ≤10%” value came to 5, the “ratio of cases with inhibition rate (% control) >10%” value was determined as 61.5% and the “ratio of cases with inhibition rate (% control) ≤10%” value was 38.5%. Besides, in data set [2], the “number of cases with inhibition rate (% control) >10%” value is listed as 14, the “number of cases with inhibition rate (% control) ≤10%” value is recorded as 12, the “ratio of cases with inhibition rate (% control) >10%” value is on record as 53.8% and the “ratio of cases with inhibition rate (% control) ≤10%” value is given as 46.2%.
Turning to “ZAP RNA interference fragment: ZAP interference fragment (Si RNA), sense strand SEQ ID No. 8, antisense strand SEQ ID No. 9 (sense CCAAGAGUAGCACUUGUUATT; antisense UAACAAGUGCUACUCUUGGTT; sugars from the 5' end r19 d2, backbone not given here)”, the “ZAP protein expression quantity” value in the data set with ZAP (HCT116), in the data set with ZAP (L-02) and in the data set with ZAP (PLC) was “undetectable level” each time.
